Tests used:
[1] = system: serum and liver lipid levels; assay: hypolipidemic activity in rats on regimen rich in lipids, second set of experiments (Table II); format: in vivo, male Wistar EOPS rats
Experimental: (§1) The hypolipidemic activity was determined in rats subjected to a regimen rich in lipids over the course of 2 sets of experiments.
2. Male Wistar EOPS rats weighing in the neighborhood of 140 g receive a regimen rich in lipids during 21 days. Beginning with the eleventh day, the animals receive either a gum preparation containing the product to be tested or a preparation of 6% gum arabic alone, for 6 days out of 7. After the last feeding, and a subsequent 24 hour fast, the animals are sacrificed. A group of animals submitted to a normal regimen is used as a control. The percentage reductions of lipid levels are calculated using the following equation: [formula]

[2] = acute oral toxicity in rats, observed during 14 days; format: in vivo, Wistar EOPS rats; details: in vivo, rat, 2000 mg/kg
Experimental: (§2) The acute toxicity of the p-chlorophenyl ester of clofibric acid was determined using two species of animals (Swiss EOPS mice and Wistar EOPS rats) by oral administration, the product being administered in a gum preparation. The animals were observed during 14 days.

Wistar EOPS rats = assay: as above; format: in vivo; details: rat, 2000 mg/kg
Experimental: as §2

Swiss EOPS mice = assay: acute oral toxicity in mice, observed during 14 days; format: in vivo; details: general statement
Experimental: as §2

[3] = as above; format: in vivo, Swiss EOPS mice; details: mouse, in vivo, po, 2000 mg/kg
Experimental: as §2

[4] = system: serum and liver lipid levels; assay: hypolipidemic activity in rats on regimen rich in lipids, first set of experiments (Table I); format: in vivo, conventional male Wistar rats
Experimental: as §1
1. Conventional male Wistar rats weighing 130-150 g were maintained on a regimen rich in lipids for 21 days. At the same time, beginning with the fifteenth day of the regimen, they received a daily dose of either a gum preparation containing the product to be tested or a preparation of 6% gum arabic alone. After a fast of 24 hours, the animals were sacrificed, 22 days after the start of the regimen.

[5] = subchronic toxicity study, blood levels after one month oral administration (Table III); format: in vivo, male Wistar EOPS rats; design: bilirubin: unit not given here
Experimental: A subchronic toxicity study of the p-chlorophenyl ester of clofibric acid was carried out using the following protocol. The product was administered six days a week during the course of a month, by oral administration in a gum preparation, to male Wistar EOPS rats having an average initial weight of 200 g. After the last feeding, the animals were fasted. A blood sample is taken from the abdominal aorta under anesthesia, then the animals are sacrificed. […] The notation NS or S signifies whether the change induced by the product to be tested was statistically nonsignificant or significant.

[6] = 125 mg/kg/day, regimen rich in lipids
[7] = 75 mg/kg/day, regimen rich in lipids
[8] = 200 mg/kg/day, regimen rich in lipids
[9] = second dose group, dose not given

CC(C)(Oc1ccc(Cl)cc1)C(=O)O [clofibric acid, p-chlorophenoxyisobutyric acid, reference compound]
Wt. of liver / Wt of rat [1, 6]: 6.99 ± 0.75 | liver cholesterol level [1, 6]: 127.0 mg/g of liver | liver total lipids level [1, 6]: 382.7 mg/g of liver | liver triglycerides % reduction [1, 6]: 65% | liver triglycerides level [1, 6]: 20.33 mg/g of liver | serum cholesterol % reduction [1, 6]: 54% | serum cholesterol concentration [1, 6]: 2.31 g/L | serum total lipids % reduction [1, 6]: 46% | serum total lipids concentration [1, 6]: 4.97 ± 1.41 g/L | serum triglycerides concentration [1, 6]: 0.23 ± 0.04 g/L | mortality at 336 h [2]: 40%

CC(C)(Oc1ccc(Cl)cc1)C(=O)Oc1ccc(Cl)cc1 [p-chlorophenyl ester of clofibric acid, p-chlorophenyl 2-(p-chlorophenoxy)-2-methylpropionate]
Wt. of liver / Wt of rat [1, 7]: 6.08 ± 0.31 | liver cholesterol level [1, 7]: 123.0 mg/g of liver | liver total lipids level [1, 7]: 323.9 mg/g of liver | liver triglycerides % reduction [1, 7]: 48% | liver triglycerides level [1, 7]: 23.37 mg/g of liver | serum cholesterol % reduction [1, 7]: 32% | serum cholesterol concentration [1, 7]: 3.06 g/L | serum total lipids % reduction [1, 7]: 34% | serum total lipids concentration [1, 7]: 5.56 ± 2.83 g/L | serum triglycerides concentration [1, 7]: 0.39 ± 0.06 g/L | Wt. of liver / Wt of rat [1, 6]: 6.36 ± 0.31 | liver cholesterol level [1, 6]: 136.5 mg/g of liver | liver total lipids level [1, 6]: 361.9 mg/g of liver | liver triglycerides % reduction [1, 6]: 62% | liver triglycerides level [1, 6]: 20.84 mg/g of liver | serum cholesterol % reduction [1, 6]: 69% | serum cholesterol concentration [1, 6]: 1.79 g/L | serum total lipids % reduction [1, 6]: 74% | serum total lipids concentration [1, 6]: 3.55 ± 0.77 g/L | serum triglycerides concentration [1, 6]: 0.35 ± 0.06 g/L | Wt. of liver / Wt of rat [1, 8]: 6.70 ± 0.50 | liver cholesterol level [1, 8]: 135.2 mg/g of liver | liver total lipids level [1, 8]: 382.0 mg/g of liver | liver triglycerides % reduction [1, 8]: 89% | liver triglycerides level [1, 8]: 16.20 mg/g of liver | serum cholesterol % reduction [1, 8]: 67% | serum cholesterol concentration [1, 8]: 1.84 g/L | serum total lipids % reduction [1, 8]: 69% | serum total lipids concentration [1, 8]: 3.81 ± 0.97 g/L | serum triglycerides concentration [1, 8]: 0.22 ± 0.06 g/L | reduction of serum lipid and cholesterol levels compared with the acid ([1]; at equal dosage levels, vs clofibric acid): reduces serum lipid and cholesterol levels to a greater degree than the acid | increase in liver weight compared with the acid ([1]; at equivalent dosage levels, vs clofibric acid): smaller than when the acid is used, and this difference is statistically significant | weight of the animals' livers ([1]; regimen rich in lipids): increases | mortality (Wistar EOPS rats): did not result in any mortality | toxicity (Swiss EOPS mice): very low toxicity | mortality at 336 h [3]: 10% | significance of reductions in blood and liver levels ([4]; 200 mg/kg/day, Table I): significant | liver total lipids % reduction [4, 8]: 56% | liver total lipids level [4, 8]: 60.82 ± 26.98 mg/g of liver | serum cholesterol % reduction [4, 8]: 69% | serum cholesterol concentration [4, 8]: 1.33 ± 0.33 g/L | serum total lipids % reduction [4, 8]: 81% | serum total lipids concentration [4, 8]: 3.87 ± 0.65 g/L | hypolipidemic activity compared with clofibric acid and nicotinic acid ([4]; general statement, total serum lipid and serum cholesterol levels): significantly superior to that of both clofibric acid and nicotinic acid | alkaline phosphatase ([5]; 100 mg/kg/day): 25.0 ± 4.9 mU/ml | bilirubin ([5]; 100 mg/kg/day): 3.68 ± 0.73 | cholesterol ([5]; 100 mg/kg/day): 0.47 ± 0.04 g/L | glycemia ([5]; 100 mg/kg/day): 1.58 ± 0.15 g/L | total lipids ([5]; 100 mg/kg/day): 2.92 ± 0.54 g/L | triglycerides ([5]; 100 mg/kg/day): 0.83 ± 0.27 g/L | urea ([5]; 100 mg/kg/day): 0.42 ± 0.07 g/L | alkaline phosphatase ([5]; 500 mg/kg/day): 38.4 ± 9.9 mU/ml | bilirubin ([5]; 500 mg/kg/day): 5.04 ± 1.09 | cholesterol ([5]; 500 mg/kg/day): 0.32 ± 0.06 g/L | glycemia ([5]; 500 mg/kg/day): 1.41 ± 0.26 g/L | total lipids ([5]; 500 mg/kg/day): 2.77 ± 0.42 g/L | triglycerides ([5]; 500 mg/kg/day): 1.09 ± 0.33 g/L | urea ([5]; 500 mg/kg/day): 0.40 ± 0.05 g/L | alkaline phosphatase [5, 9]: 33.5± 7.8 mU/ml | bilirubin [5, 9]: 4.82 ± 1.85 | cholesterol [5, 9]: 0.37 ± 0.07 g/L | glycemia [5, 9]: 1.57 ± 0.15 g/L | total lipids [5, 9]: 2.54 ± 0.35 g/L | triglycerides [5, 9]: 0.74 ± 0.1 g/L | urea [5, 9]: 0.34 ± 0.07 g/L
